For 16 molecules, IC50 results are on record in ChEMBL document CHEMBL5241090, “A comprehensive overview of β-carbolines and its derivatives as anticancer agents” (Eur J Med Chem, 2021).

≈ marks a conversion by molar mass, not a printed value. Where only a bound is given, the exact number is not on record here.

Assay [1] relates to SGC-7901. The experiment in a line: Cytotoxicity against human SGC-7901 cells assessed as reduction in optical density by MTT assay. The assay is classed as functional, cell-based. Background: Formazan colour is commonly taken as a measure of viable cells.
The nature of assay [2]: Cytotoxicity against human 95-D cells assessed as reduction in optical density by MTT assay. The assay is classed as functional, cell-based.
The subject of another assay is HepG2. As to the kind of experiment: Cytotoxicity against human HepG2 cells assessed as reduction in optical density by MTT assay. The assay is classed as functional, cell-based.
In a further assay the test system is HCT-116. The experiment in a line: Cytotoxicity against human HCT-116 cells by MTT assay. The assay is classed as functional, cell-based.
The next assay has as its system ACHN. As to the kind of experiment: Cytotoxicity against human ACHN cells. The assay is classed as functional, cell-based.
Assay [3] concerns DU-145. As to the kind of experiment: Cytotoxicity against human DU-145 cells. The assay is classed as functional, cell-based.
Assay [4] deals with HeLa. As to the kind of experiment: Cytotoxicity against human HeLa cells. The assay is classed as functional, cell-based.
The subject of assay [5] is A549. As to the kind of experiment: Cytotoxicity against human A549 cells. The assay is classed as functional, cell-based.
The test system of assay [6] is MCF7. As to the kind of experiment: Cytotoxicity against human MCF7 cells. The assay is classed as functional, cell-based.
Assay [7] deals with MCF7. As to the kind of experiment: Cytotoxicity against human MCF7 cells measured after 48 hrs by MTT assay. The assay is classed as functional, cell-based. The settings on record: MCF7, 48 h.
In assay [8] the test system is HeLa. The experiment in a line: Cytotoxicity against human HeLa cells measured after 48 hrs by MTT assay. The assay is classed as functional, cell-based.
The subject of the next assay is PC-3. As to the kind of experiment: Cytotoxicity against human PC-3 cells measured after 48 hrs by MTT assay. The assay is classed as functional, cell-based. The settings on record: PC-3, 48 h.
The test system of another assay is HGC-27. As to the kind of experiment: Cytotoxicity against human HGC-27 cells measured after 48 hrs by MTT assay. The assay is classed as functional, cell-based. The settings on record: HGC-27, 48 h.
The test system of assay [9] is DU-145. As to the kind of experiment: Antiproliferative activity against human DU-145 cells incubated for 48 hrs by MTT assay. The assay is classed as functional, cell-based. To be noted: DU-145, 48 h.
A further assay has as its system HCC1395. As to the kind of experiment: Antiproliferative activity against human HCC1395 cells incubated for 48 hrs by MTT assay. The assay is classed as functional, cell-based. To be noted: HCC1395, 48 h.
The test system of another assay is TERT-RPE1. As to the kind of experiment: Cytotoxicity against human TERT-RPE1 cells. The settings on record: RPE-1. The assay is classed as functional, cell-based.
The next assay concerns Col2. The experiment in a line: Cytotoxicity against human Col2 cells. The assay is classed as functional, cell-based.
The subject of another assay is HUVEC. As to the kind of experiment: Cytotoxicity against human HUVEC cells. The assay is classed as functional, cell-based.
Assay [10] is described as follows: Cytotoxicity against human Lu1 cells. The assay is classed as functional, cell-based.
The next assay concerns LNCaP. As to the kind of experiment: Cytotoxicity against human LNCaP cells. The assay is classed as functional, cell-based.
The subject of a further assay is Keratinocyte. The experiment in a line: Cytotoxicity against guinea pig ear keratinocytes using [3H]thymidine by liquid scintillation counting analysis. The assay is classed as functional, cell-based. The settings on record: Cavia porcellus.
In a further assay the test system is HT-29. As to the kind of experiment: Growth inhibition of human HT-29 cells incubated for 72 hrs by SRB assay. To be noted: HT-29, 72 h. The assay is classed as functional, cell-based. On the technique in general: Sulforhodamine B stains cellular protein and so reports cell mass.
Assay [11] has as its system A549. As to the kind of experiment: Growth inhibition of human A549 cells incubated for 72 hrs by SRB assay. To be noted: A549, 72 h. The assay is classed as functional, cell-based.
A further assay has as its system MDA-MB-231. The experiment in a line: Growth inhibition of human MDA-MB-231 cells incubated for 72 hrs by SRB assay. To be noted: MDA-MB-231, 72 h. The assay is classed as functional, cell-based.
The subject of the next assay is NCI-H187. As to the kind of experiment: Cytotoxicity against human NCI-H187 cells. The assay is classed as functional, cell-based.
The test system of a further assay is SMMC-7721. As to the kind of experiment: Cytotoxicity against human SMMC-7721 cells measured after 48 hrs by MTT assay. The assay is classed as functional, cell-based. The settings on record: SMMC-7721, 48 h.
Assay [12] deals with A549. The experiment in a line: Cytotoxicity against human A549 cells measured after 48 hrs by MTT assay. The assay is classed as functional, cell-based. The settings on record: A549, 48 h.
Assay [13] concerns SGC-7901. The experiment in a line: Cytotoxicity against human SGC-7901 cells measured after 48 hrs by MTT assay. The assay is classed as functional, cell-based. To be noted: SGC-7901, 48 h.
In assay [14] the target is T1, Kinesin-like protein KIF11 (Homo sapiens, UniProt P52732).
T1 sequence (P52732 whole entry): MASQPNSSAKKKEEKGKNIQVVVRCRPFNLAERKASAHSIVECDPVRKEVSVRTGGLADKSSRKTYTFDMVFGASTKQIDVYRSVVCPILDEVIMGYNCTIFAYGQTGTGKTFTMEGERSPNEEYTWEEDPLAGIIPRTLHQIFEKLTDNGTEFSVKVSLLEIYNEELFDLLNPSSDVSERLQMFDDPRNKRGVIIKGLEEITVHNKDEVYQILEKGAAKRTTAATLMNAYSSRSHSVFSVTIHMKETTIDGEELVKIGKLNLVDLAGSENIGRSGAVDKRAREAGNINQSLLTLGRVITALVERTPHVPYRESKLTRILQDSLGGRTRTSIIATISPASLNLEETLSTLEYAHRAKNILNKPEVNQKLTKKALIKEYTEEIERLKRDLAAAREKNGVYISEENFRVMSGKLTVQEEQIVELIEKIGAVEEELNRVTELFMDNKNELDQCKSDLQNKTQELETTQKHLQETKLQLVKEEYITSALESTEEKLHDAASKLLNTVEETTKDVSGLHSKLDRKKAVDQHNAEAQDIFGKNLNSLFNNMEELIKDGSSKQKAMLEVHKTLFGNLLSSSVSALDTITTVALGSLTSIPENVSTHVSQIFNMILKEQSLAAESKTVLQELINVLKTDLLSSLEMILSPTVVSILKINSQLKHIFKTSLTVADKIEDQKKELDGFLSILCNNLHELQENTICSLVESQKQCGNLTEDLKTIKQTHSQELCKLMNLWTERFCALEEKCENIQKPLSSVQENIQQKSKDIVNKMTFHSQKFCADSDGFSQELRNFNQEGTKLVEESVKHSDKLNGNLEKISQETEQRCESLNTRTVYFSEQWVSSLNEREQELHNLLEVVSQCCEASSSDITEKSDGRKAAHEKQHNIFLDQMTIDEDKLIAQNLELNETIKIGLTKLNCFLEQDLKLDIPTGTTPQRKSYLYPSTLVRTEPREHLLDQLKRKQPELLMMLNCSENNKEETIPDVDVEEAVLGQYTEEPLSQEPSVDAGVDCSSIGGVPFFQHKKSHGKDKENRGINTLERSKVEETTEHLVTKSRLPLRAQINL
The experiment in a line: Inhibition of KSP (unknown origin).

In the next assay the target is T2, DNA topoisomerase 1 (Homo sapiens, UniProt P11387).
T2 sequence (P11387 whole entry): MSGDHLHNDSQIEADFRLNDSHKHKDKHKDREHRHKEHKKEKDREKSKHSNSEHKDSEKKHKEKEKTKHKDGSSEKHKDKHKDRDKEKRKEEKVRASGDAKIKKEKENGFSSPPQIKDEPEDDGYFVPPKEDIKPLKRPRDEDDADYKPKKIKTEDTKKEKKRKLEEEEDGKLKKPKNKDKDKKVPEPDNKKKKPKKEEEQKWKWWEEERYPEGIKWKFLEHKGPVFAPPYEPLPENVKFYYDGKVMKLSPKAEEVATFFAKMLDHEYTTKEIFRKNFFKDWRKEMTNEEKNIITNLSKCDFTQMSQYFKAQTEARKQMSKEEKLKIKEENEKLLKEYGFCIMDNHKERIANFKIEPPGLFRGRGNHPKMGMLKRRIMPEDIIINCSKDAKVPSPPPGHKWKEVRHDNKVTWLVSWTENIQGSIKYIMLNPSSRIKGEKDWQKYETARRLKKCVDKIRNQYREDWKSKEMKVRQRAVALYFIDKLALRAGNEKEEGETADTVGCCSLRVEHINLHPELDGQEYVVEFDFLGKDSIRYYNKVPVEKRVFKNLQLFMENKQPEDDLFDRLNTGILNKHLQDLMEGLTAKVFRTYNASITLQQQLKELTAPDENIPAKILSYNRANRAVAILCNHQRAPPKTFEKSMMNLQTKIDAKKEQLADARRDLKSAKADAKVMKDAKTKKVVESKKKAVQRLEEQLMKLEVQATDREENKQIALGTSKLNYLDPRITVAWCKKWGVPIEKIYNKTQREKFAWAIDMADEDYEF
As to the kind of experiment: Inhibition of Topoisomerase 1 (unknown origin).

In the case of `CCn1c2cc(OC)ccc2c2ccnc(C)c21`, the IC50 in the assay with SGC-7901 [1] was less than 36000 nM; in assay [2], 36000 nM; in the assay with HepG2, less than 36000 nM.

Take `COC(=O)c1cc2c([nH]c3ccccc32)c(C(C)=O)n1`: it took 9.67 µg/mL (≈ 36 µM) to reach half-maximal inhibition in the assay with HCT-116 (IC50).

Turning to `O=C(/C=C/c1cc2c([nH]c3ccccc32)c(-c2ccc(C(F)(F)F)cc2)n1)c1ccco1`, the IC50 with ACHN, in the assay with DU-145 [3], in the assay on HeLa [4], in the assay with A549 [5] and in the assay on MCF7 [6] was 1890 nM throughout.

Take `CC(=O)N1N=C(c2ccco2)CC1c1cc2c([nH]c3ccccc32)c(-c2ccc(C(F)(F)F)cc2)n1` (stereo not drawn): the IC50 in the assay on ACHN, in the assay with DU-145 [3], in the assay with HeLa [4], in the assay on A549 [5] and in the assay with MCF7 [6] was 1940 nM each time.

As to `COc1ccc2c3ccnc(C)c3n(CCCc3ccccc3)c2c1`, the figures for the concentration for half-maximal inhibition (IC50) (in the assay on SGC-7901 [1]; in [2]; with HepG2) were less than 36000 nM, 36000 nM and less than 36000 nM, respectively.

In the case of `COc1ccc(-c2nc(Cn3cc(CN4C(=O)c5cccc6cccc(c56)C4=O)nn3)cc3c2[nH]c2ccccc23)cc1OC`, the IC50 in the assay with MCF7 [7], with HeLa [8], with PC-3 and in the assay on HGC-27 was 7460 nM each time.

As for `COc1ccc2c3ccnc(C)c3n(C)c2c1`, the IC50 (with SGC-7901 [1]; in [2]; in the assay on HepG2) was less than 36000 nM throughout.

With `COc1ccc2c(c1)c1ccnc3ccc(=O)n2c31`, the IC50 with DU-145 [9] worked out at 1.58 µg/mL (≈ 6.31 µM); in the assay on HCC1395, 14.7 µg/mL (≈ 58.7 µM).

`O=c1cc2c3ccccc3n3c(=O)ccc([nH]1)c23`: the half-maximal inhibitory concentration (IC50) (with TERT-RPE1; in the assay with Col2; in the assay on HUVEC; in assay [10]; with LNCaP) was 506 nM each time.

Take `COc1cnc2ccc(=O)n3c4ccccc4c1c23`: in the assay with Keratinocyte, the half-maximal inhibitory concentration (IC50) stood at 5.76 µg/mL (≈ 23 µM).

`NC(=O)c1c(-c2c[nH]c3cc(O)ccc23)ncc2[nH]c3ccc(O)cc3c12`: the IC50 in the assay with HT-29 came to 45 µg/mL (≈ 126 µM); with A549 [11] it was 35 µg/mL (≈ 97.7 µM); in the assay with MDA-MB-231, 42 µg/mL (≈ 117 µM).

On to `COc1ccc2[nH]c3cnc(-c4c[nH]c5cc(O)ccc45)c(C(=O)O)c3c2c1`, for which the values for the IC50 with HT-29, in the assay with A549 [11] and in the assay with MDA-MB-231 were 35 µg/mL (≈ 93.7 µM), 100 µg/mL (≈ 268 µM) and 90 µg/mL (≈ 241 µM), respectively.

In the case of `O=C(O)c1c(-c2c[nH]c3cc(O)ccc23)ncc2[nH]c3ccc(O)cc3c12`, the IC50 in the assay on HT-29 was 42 µg/mL (≈ 117 µM); in the assay on A549 [11], 30 µg/mL (≈ 83.5 µM); in the assay with MDA-MB-231 it was 25 µg/mL (≈ 69.6 µM).

In the assay on NCI-H187, `C[C@H](O)c1nc(O)cc2c1[nH]c1ccccc12` showed an IC50 of 79900 nM.

Take `O=C(OCCCCCOC(=O)c1cc2c3ccccc3n(Cc3ccccc3F)c2cn1)c1cc2c3ccccc3n(Cc3ccccc3F)c2cn1`: the concentration for half-maximal inhibition (IC50) with SMMC-7721, with A549 [12], in the assay on HeLa [8] and in the assay with SGC-7901 [13] was 5610 nM in each case.

Turning to `Cc1ccc(-n2c(-c3cc4c([nH]c5ccccc54)c(-c4cccc(O)c4)n3)n[nH]c2=S)cc1`, the figures for the IC50 (in assay [14]; at DNA topoisomerase 1) were 8910 nM and 2500 nM, respectively.

In general, IC50 refers to the concentration at which inhibition is half-maximal.
